Values quoted from earlier work as cited in patent US6368616B1, “Aqueous suspension for nasal administration of loteprednol” (Senju Pharmaceutical Co., Ltd., priority 1997, dated 2002).

solubility in water: substantially insoluble in water
SMILES: CCOC(=O)O[C@]1(C(=O)OCCl)CC[C@H]2[C@@H]3CCC4=CC(=O)C=C[C@]4(C)[C@H]3[C@@H](O)C[C@@]21C [loteprednol etabonate, Loteprednol etabonate]
